Tests used:
[1] = tested on: Ac-p53 and p53 in MV4-11 cells; assay: Western blot of Ac-p53 and p53 in MV4-11 cells; assay type: cell-based, human; details: 6-hr, increased HDAC8i concentration
Protocol: FIGS. 21A-21D. HDAC8 inhibition activates p53 and induces p53-dependent apoptosis in human AML cells. […] FIG. 21B: Western blot analysis of Ac-p53, total p53, Ac-H3, Ac-H4, β-actin in MV4-11 cells treated with indicated doses of HDAC8i for 6 h. FIG. 21C: Fold change in mRNA levels of p53 targets after treatment with PCI-48012 ([…]) for 16 h. FIG. 21D: Western blot analysis of p53, β-actin in MV4-11 cells transduced with control or sh-p53 (top). Relative survival of control or sh-p53 transduced MV4-11 cells treated with HDAC8i (bottom).

[2] = tested on: HeLa nuclear HDACs; assay: Inhibition of HeLa nuclear HDACs (HeLa nuclear extract, mainly HDACs1-3); assay type: biochemical; details: read-out: HeLa HDAC IC50
[3] = tested on: OCI-AML3 cells; assay: Survival/apoptosis of OCI-AML3 AML cells by Annexin V labeling; assay type: cell-based, human
[4] = biological target: HDAC10 (Homo sapiens (Human), UniProt Q969S8); assay: Inhibition of purified HDAC10; details: read-out: HDAC 10 IC50; class II
[5] = biological target: HDAC4 (Homo sapiens (Human), UniProt P56524); assay: Inhibition of purified HDAC4; details: read-out: HDAC 4 IC50; class II
[6] = biological target: HDAC11 (Homo sapiens (Human), UniProt Q96DB2); assay: Inhibition of purified HDAC11; details: read-out: HDAC 11 IC50; class IV
[7] = tested on: Ac-p53 (K382) in inv(16)^+ AML CD34^+ cells; assay: Western blot of Ac-p53 (K382) in inv(16)+ AML CD34+ cells; details: 6 h
Source text: We therefore tested whether inhibiting HDAC8 deacetylase activity in inv(16)^+ AML CD34^+ cells could similarly lead to increased p53 acetylation and transcriptional activity.

[8] = tested on: p53 target genes in inv(16)^+ AML CD34^+ cells; assay: qRT-PCR of p53 target genes in inv(16)+ AML CD34+ cells; assay type: cell-based, human; details: 10 μM, 16 h
Source text: (§1) FIGS. 5A-5G. […] FIG. 5A: Relative expression level of HDAC8 in normal (NL) PBSC (n=7) or inv(16)^+ AML (n=7) CD34^+ cells determined by qRT-PCR. Levels of HDAC8 expression were normalized to levels of ACTB in each sample. Dashed line indicates the average of all NL PBSC samples (set to an arbitrary value of 1). […] Each dot represents an individual subject and lines indicate mean±SEM. * P<0.05; ** P<0.01; *** P<0.001. […] Each dot represents an individual patient and lines indicate mean±SEM. * P<0.05; ** P<0.01; *** P<0.001. […] Levels of β-actin were detected as loading control. Shown are representative results from four patients. […] Each dot represents an individual subject and lines indicate mean±SEM. Dash line indicates levels in vehicle treated cells. * P<0.05; ** P<0.01; *** P<0.001. […] Each dot represents an individual patient and lines indicate mean±SEM.

[9] = tested on: KG1a cells; assay: Survival of KG1a AML cells by Annexin V labeling; assay type: cell-based, human; details: 48 h, result in words
[10] = tested on: MOLM13 cells; assay: Survival/apoptosis of MOLM13 AML cells by Annexin V labeling; assay type: cell-based, human
[11] = tested on: CM-p53 protein complex; assay: Interaction of CM with p53 under HDAC8i treatment; assay type: cell-based
Source text: Cells were lysed in RIPA buffer containing protease inhibitor cocktail (Roche) and MG132. Antibodies used for IP were conjugated with protein A/G beads using the antibody cross-linking kit (Pierce Biotechnology, Rockford, Ill.) following manufacturer's protocol. For Western blot, proteins were resolved in 10% SDS-PAGE. The antibodies used induced anti-FLAG (Sigma), anti-HDAC8, anti-CBFβ (Santa Cruz), anti-p53 (DO-1), anti-Ac-p53 (K379) (Cell Signaling), anti-p53 (Cell signaling) and anti-β-actin (Sigma). Horseradish peroxidase-conjugated anti-rabbit or anti-mouse secondary antibodies (Jackson ImmunoResearch, West Grove Pa.) were used, followed by detection using the SuperFemto kit (Pierce Biotechnology, Rockford, Ill.).
Class 1 HDACs, including HDAC1, HDAC2, and HDAC3, reportedly could inhibit p53 activity by deacetylating p53 [41-43]. […] To test this, we used lentivirus (pLKO. 1) mediated expression of 2 independent small-hairpin (sh)-RNA sequences against Hdac8 to specifically knock-down Hdac8 in 32D-CM cells. Cells were exposed to IR (3Gy) and analyzed for levels of p53 acetylation 6 h after.

[12] = tested on: inv(16)^+ AML CD34^+ cells; assay: Apoptosis of inv(16)+ AML CD34+ cells, Annexin V staining; assay type: cell-based, human
Source text: Given that the frequency of TP53 mutation is relatively low in AML, altered post-translational modification by HDAC8 could represent an alternative p53-inactivating mechanism and contribute to drug resistance of AML stem cells. We first examined the expression of HDAC8 in CD34^+ stem and progenitor cells isolated from patients with inv(16)^+ AML compared to normal mobilized peripheral blood stem cells (PBSC).

[13] = tested on: p53 target genes in 32D-CM cells; assay: qRT-PCR of p53 target genes in 32D-CM cells; assay type: cell-based; details: 10 μM, 16 h
[14] = biological target: HDAC3 (Homo sapiens (Human), UniProt O15379); assay: Inhibition of purified HDAC3; details: read-out: HDAC 3 IC50; class I
[15] = tested on: p53 target genes in normal CD34^+ cells; assay: qRT-PCR of p53 target genes in normal CD34+ cells; assay type: cell-based, human; details: similar treatment
Source text: as §1

[16] = tested on: Cl1-1 cells; assay: Cytotoxicity / anti-proliferative activity in CL1-1 lung cancer cells; details: read-out: Cytotoxicity IC50 Cl1-1; mean SD of three determinations
[17] = tested on: MV4-11 cells; assay: Proliferation of MV4-11 cells, luminescent cell viability assay; assay type: cell-based, human; details: 48-hr, luminescent cell viability assay; read-out: MV4-11 Proliferation IC50
[18] = tested on: inv(16)^+ AML CD34^+ cells; assay: Proliferation of inv(16)+ AML CD34+ cells, ATP-based cell viability assay; set-up: species or system human; details: 48 h, 2.5 μM to 40 μM, compared to normal CD34+ cells

Chain of HDAC10 (Q969S8 whole entry, species assumed): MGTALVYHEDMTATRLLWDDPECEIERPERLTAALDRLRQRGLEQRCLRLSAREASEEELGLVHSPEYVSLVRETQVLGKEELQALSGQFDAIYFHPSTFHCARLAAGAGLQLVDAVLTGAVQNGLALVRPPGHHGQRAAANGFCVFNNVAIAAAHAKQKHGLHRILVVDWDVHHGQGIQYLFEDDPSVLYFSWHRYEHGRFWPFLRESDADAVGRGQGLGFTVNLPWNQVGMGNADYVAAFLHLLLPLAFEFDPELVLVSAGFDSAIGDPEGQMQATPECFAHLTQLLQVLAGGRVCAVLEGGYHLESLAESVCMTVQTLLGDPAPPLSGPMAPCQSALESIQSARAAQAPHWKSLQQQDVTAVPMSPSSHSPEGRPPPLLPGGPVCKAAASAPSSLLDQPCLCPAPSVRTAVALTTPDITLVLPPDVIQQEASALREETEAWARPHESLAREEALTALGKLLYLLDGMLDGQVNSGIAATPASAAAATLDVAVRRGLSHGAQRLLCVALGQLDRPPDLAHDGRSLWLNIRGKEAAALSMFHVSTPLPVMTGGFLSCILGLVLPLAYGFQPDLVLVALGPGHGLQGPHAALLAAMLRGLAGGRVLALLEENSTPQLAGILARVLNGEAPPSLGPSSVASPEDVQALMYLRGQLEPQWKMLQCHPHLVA
Chain of HDAC11 (Q96DB2 whole entry, species assumed): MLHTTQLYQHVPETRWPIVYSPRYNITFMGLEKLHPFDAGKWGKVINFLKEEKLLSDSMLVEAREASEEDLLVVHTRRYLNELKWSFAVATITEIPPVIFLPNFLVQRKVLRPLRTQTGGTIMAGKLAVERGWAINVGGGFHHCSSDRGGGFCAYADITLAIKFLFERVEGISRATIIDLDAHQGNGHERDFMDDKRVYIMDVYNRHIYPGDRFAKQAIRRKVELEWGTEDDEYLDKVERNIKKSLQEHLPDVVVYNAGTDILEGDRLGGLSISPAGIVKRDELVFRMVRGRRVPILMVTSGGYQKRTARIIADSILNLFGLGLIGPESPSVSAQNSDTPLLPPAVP
Chain of HDAC3 (O15379 whole entry, looked up, species assumed): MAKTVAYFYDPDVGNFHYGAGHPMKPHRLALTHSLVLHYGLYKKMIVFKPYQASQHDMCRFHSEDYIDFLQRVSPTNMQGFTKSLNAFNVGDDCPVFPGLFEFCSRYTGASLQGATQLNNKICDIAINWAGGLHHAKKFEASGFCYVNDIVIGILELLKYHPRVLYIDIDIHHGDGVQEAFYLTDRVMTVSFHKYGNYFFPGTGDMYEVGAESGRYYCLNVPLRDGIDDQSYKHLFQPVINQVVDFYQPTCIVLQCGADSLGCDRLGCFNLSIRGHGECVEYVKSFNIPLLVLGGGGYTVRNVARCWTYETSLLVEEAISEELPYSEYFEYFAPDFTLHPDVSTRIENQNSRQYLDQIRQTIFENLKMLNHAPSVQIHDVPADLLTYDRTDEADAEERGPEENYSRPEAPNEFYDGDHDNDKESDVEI
Chain of HDAC3 (Q9Y618 whole entry partner, looked up, species assumed): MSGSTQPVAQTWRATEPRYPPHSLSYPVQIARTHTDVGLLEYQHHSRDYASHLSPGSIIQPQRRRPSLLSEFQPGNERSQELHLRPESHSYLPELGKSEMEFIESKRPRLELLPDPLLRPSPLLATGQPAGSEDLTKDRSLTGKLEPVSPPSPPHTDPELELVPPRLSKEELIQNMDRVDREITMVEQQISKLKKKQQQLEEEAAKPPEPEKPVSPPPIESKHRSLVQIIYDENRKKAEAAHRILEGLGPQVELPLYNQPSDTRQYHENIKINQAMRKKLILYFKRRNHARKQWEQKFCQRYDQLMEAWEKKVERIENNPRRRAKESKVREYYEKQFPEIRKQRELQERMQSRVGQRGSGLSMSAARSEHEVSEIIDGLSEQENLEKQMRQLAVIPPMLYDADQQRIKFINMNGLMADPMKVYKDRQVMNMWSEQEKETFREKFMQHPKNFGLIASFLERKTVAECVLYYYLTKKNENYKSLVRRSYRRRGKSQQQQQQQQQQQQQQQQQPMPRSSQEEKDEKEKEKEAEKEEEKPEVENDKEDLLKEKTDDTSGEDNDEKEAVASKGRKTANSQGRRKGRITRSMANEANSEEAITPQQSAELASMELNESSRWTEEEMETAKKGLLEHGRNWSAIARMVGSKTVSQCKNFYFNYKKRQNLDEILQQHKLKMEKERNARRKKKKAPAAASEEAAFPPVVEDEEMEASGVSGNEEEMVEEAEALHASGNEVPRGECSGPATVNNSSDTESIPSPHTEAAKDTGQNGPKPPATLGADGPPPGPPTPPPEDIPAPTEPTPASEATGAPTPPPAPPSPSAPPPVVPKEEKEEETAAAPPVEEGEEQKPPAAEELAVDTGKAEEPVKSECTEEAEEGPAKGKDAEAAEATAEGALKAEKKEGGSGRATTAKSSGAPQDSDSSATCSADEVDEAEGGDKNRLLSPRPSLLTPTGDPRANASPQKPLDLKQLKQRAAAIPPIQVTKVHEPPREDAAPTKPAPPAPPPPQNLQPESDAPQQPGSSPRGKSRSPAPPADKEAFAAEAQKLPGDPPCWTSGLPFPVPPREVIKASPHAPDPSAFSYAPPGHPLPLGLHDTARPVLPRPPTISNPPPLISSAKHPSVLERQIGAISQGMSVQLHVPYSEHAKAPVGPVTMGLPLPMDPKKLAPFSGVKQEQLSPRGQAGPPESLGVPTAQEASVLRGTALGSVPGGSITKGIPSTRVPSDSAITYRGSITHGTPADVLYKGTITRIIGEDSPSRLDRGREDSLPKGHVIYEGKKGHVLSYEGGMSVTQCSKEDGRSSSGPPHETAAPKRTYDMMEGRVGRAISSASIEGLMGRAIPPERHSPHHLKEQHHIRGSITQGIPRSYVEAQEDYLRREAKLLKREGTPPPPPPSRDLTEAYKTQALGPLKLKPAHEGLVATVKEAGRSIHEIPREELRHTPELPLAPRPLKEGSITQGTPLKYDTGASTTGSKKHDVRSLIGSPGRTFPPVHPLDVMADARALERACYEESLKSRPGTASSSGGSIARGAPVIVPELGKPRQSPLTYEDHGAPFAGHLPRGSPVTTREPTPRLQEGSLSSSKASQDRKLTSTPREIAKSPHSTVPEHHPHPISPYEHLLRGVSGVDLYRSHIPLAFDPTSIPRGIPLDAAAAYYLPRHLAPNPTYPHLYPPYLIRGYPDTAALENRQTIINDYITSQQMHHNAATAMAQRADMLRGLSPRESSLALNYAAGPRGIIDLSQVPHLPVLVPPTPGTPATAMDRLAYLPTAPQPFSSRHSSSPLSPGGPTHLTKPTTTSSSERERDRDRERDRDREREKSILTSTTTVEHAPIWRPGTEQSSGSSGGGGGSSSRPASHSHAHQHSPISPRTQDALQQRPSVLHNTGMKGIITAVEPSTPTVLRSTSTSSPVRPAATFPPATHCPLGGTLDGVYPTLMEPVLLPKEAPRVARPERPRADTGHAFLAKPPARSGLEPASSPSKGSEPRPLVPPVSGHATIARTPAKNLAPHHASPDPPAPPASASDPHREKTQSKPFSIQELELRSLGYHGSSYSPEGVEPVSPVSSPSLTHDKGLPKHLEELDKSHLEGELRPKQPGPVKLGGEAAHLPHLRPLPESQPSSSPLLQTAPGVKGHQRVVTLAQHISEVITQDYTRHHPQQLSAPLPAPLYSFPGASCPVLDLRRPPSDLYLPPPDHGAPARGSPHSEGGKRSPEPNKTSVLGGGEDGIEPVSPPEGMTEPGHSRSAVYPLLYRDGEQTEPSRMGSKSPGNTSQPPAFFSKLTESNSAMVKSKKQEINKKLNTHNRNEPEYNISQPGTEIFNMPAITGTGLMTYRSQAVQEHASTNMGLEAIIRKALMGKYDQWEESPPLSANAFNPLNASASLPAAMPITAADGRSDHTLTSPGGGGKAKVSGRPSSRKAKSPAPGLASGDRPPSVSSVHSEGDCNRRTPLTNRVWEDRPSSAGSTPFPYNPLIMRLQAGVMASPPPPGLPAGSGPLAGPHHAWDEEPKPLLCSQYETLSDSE
Chain of HDAC4 (P56524 whole entry, species assumed): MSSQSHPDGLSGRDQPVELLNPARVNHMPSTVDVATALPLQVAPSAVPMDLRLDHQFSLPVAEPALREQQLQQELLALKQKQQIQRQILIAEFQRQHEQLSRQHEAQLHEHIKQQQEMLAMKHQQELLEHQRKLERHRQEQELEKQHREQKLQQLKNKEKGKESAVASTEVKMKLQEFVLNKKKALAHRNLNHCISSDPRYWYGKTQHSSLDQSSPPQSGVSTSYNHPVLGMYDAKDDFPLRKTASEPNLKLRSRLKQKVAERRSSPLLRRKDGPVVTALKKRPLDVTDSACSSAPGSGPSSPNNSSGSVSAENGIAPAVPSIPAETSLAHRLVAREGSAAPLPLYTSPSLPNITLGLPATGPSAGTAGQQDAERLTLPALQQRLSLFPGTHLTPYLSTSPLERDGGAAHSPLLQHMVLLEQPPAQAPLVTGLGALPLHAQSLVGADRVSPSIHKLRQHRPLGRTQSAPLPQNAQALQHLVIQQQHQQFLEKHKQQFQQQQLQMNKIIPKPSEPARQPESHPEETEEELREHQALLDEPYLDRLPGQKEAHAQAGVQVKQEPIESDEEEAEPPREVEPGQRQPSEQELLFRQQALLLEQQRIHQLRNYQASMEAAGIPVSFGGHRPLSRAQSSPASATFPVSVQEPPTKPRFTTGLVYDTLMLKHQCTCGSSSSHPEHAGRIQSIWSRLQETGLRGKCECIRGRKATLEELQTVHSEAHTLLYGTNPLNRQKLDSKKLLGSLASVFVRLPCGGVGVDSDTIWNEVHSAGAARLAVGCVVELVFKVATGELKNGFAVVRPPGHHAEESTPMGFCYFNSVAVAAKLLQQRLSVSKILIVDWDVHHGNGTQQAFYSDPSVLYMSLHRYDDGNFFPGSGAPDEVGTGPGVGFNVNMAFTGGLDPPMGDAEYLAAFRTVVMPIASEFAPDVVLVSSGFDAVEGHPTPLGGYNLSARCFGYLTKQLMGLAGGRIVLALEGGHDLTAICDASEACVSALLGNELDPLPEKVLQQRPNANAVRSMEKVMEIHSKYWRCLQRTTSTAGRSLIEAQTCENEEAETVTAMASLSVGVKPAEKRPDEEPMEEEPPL

COc1ccc(/C=C/C(=O)NO)c(-c2ccc(-c3ccccc3)cc2)c1 [Compound 22d, (E)-N-Hydroxy-4-methoxy-2-(biphenyl-4-yl)cinnamide]
Ac-p53 and p53 signal by western blot [1]: greater signal for Ac-p53 and p53
IC50 [2]: > 10000 nM
IC50 ([3]; 48-hr, Annexin V labeling, read-out: OCI-AML3 Apoptosis IC50): 8120 nM
survival of OCI-AML3 cells ([3]; 48 h, result in words): decreases with increased HDAC8i concentration
IC50 [4]: > 20 nM
IC50 [5]: > 20 nM
IC50 [6]: > 20 nM
Ac-p53 (K382) level in inv(16)+ AML CD34+ cells [7]: elevated levels of Ac-p53 (K382)
expression of p53 target genes in inv(16)+ AML CD34+ cells [8]: significantly induced expression of p53 target genes
survival of KG1a cells [9]: decreases with increased HDAC8i concentration
IC50 ([10]; 48-hr, Annexin V labeling, read-out: MOLM13 Apoptosis IC50): 3620 nM
survival of MOLM13 cells ([10]; 48 h, result in words): decreases with increased HDAC8i concentration
interaction of CM with p53 [11]: did not disrupt the interaction of CM with p53
apoptosis of inv(16)+ AML CD34+ cells ([12]; 48 h, compared to normal CD34+ cells or non-inv(16) AML): selectively induced apoptosis
22d-induced apoptosis after p53 knock-down ([12]; p53 shRNA vs non-silencing shRNA control, 2.5-40 μM): reduction of 22d-induced apoptosis
activation of p53 targets (Bax, Puma, p21, Gadd45b and LincRNA-p21) [13]: Variable levels of activation
IC50 [14]: 3 ± 0.1 nM
p53 target expression in normal CD34+ cells [15]: no or little change in p53 target expression
IC50 [16]: > 10 nM
IC50 [17]: 2480 nM
proliferation of inv(16)+ CD34+ cells [18]: significantly reduced proliferation

From patent US11505523B2, “HDAC8 inhibitors for treating cancer” (City of Hope, priority 2013, dated 2022)
